Laboratory results as given in patent US20240383904A1, “HETEROCYCLIC COMPOUNDS” (Hoffmann-La Roche Inc., priority 2021, published 2024).

Biological target: T1, MAGL (Homo sapiens, UniProt Q99685)
T1 sequence (Q99685 1-303): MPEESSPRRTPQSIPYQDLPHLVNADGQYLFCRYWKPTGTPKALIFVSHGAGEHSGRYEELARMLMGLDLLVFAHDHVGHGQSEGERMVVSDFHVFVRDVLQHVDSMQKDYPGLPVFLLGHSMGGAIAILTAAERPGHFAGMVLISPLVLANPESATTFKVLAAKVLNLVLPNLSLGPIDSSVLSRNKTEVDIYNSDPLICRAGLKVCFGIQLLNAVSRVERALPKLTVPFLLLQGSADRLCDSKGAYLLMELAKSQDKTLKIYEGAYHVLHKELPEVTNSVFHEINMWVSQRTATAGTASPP
Experiment: 2-AG assay: MAGL inhibitory activity by hydrolysis of 2-arachidonoylglycerol to arachidonic acid, followed by mass spectrometry
Type: biochemical
Details: 15 min preincubation, 30 min reaction at RT, 8 μM 2-arachidonoylglycerol

| Compound | IC50 |
| --- | --- |
| N=S(=O)(c1cc(F)cc(CC2CC3(C2)CN(C(=O)N2CC4(CCC(=O)N4)C2)C3)c1)C(F)(F)F (centres unmarked) [Example 298, 2-[6-[[3-fluoro-5-(trifluoromethylsulfoni-midoyl)phenyl]methyl]-2-azaspiro[3.3]heptane-2-carbonyl]-2,5-diazaspiro[3.4]octan-6-one] | 0.83 nM |
| O=C1CCC2(CN(C(=O)N3CC4(CC(Oc5cncc(C(F)(F)F)c5)C4)C3)C2)N1 [Example 299, 2-[6-[[5-(trifluoromethyl)-3-pyridyl]oxy]-2-azaspiro[3.3]heptane-2-carbonyl]-2,5-diazaspiro[3.4]octan-6-one] | 63.5 nM |
| O=C1CCC2(CN(C(=O)N3CC4(CC(Cn5ncc(C(F)(F)F)n5)C4)C3)C2)N1 [Example 300, 2-[6-[[4-(trifluoromethyl)triazol-2-yl]methyl]-2-azaspiro[3.3]heptane-2-carbonyl]-2,5-diazaspiro[3.4]octan-6-one] | 47.4 nM |
| N#Cc1ccc(OC2CC3(C2)CN(C(=O)N2CC4(CCC(=O)N4)C2)C3)cc1C(F)(F)F [Example 301, 4-[[2-(6-oxo-2,5-diazaspiro[3.4]octane-2-carbonyl)-2-azaspiro[3.3]heptan-6-yl]oxy]-2-(trifluoromethyl)benzoni-trile] | 15.4 nM |
| N#Cc1ccc(OC2CC3(C2)CN(C(=O)N2CC4(COCC(=O)N4)C2)C3)cc1C(F)(F)F [Example 302, 4-[[2-(6-oxo-8-oxa-2,5-diazaspiro[3.5]nonane-2-carbonyl)-2-azaspiro[3.3]heptan-6-yl]oxy]-2-(trifluoromethyl)benzoni-trile] | 68.8 nM |
| O=C1CCC2(CN(C(=O)N3CC4(CC(Oc5ccc(Cl)cn5)C4)C3)C2)N1 [Example 303, 2-[6-[(5-chloro-2-pyridyl)oxy]-2-azaspiro[3.3]heptane-2-carbonyl]-2,5-diazaspiro[3.4]octan-6-one] | 35.7 nM |
| Cn1cc(C(F)(F)F)c(CC2CC3(C2)CN(C(=O)N2CC4(CCC(=O)N4)C2)C3)n1 [Example 304, 2-[6-[[1-methyl-4-(trifluoromethyl)pyrazol-3-yl]methyl]-2-azaspiro[3.3]heptane-2-carbonyl]-2,5-diazaspiro[3.4]octan-6-one] | 3.73 nM |
| Cc1nn(C)c(Cl)c1CN1CC2(C1)CN(C(=O)N1CC3(COC(=O)N3)C1)C2 [Example 305, 2-[6-[(5-chloro-1,3-dimethyl-pyrazol-4-yl)methyl]-2,6-diazaspiro[3.3]heptane-2-carbonyl]-7-oxa-2,5-diazaspiro[3.4]octan-6-one] | 20.9 nM |
| O=C1CCC2(CN(C(=O)N3CC4(CN(Cc5nc(C(F)(F)F)cs5)C4)C3)C2)N1 [Example 306, 2-[6-[[4-(trifluoromethyl)thiazol-2-yl]methyl]-2,6-diazaspiro[3.3]heptane-2-carbonyl]-2,5-diazaspiro[3.4]octan-6-one] | 287 nM |
| N#Cc1cc(OC2CC3(C2)CN(C(=O)N2CC4(CCC(=O)N4)C2)C3)ccc1C(F)(F)F [Example 307, 5-[[2-(6-oxo-2,5-diazaspiro[3.4]octane-2-carbonyl)-2-azaspiro[3.3]heptan-6-yl]oxy]-2-(trifluoromethyl)benzoni-trile] | 48.1 nM |
| O=C1CCC2(CN(C(=O)N3CC4(CC(Oc5nc(C(F)(F)F)cs5)C4)C3)C2)N1 [Example 308, 2-[6-[4-(trifluoromethyl)thiazol-2-yl]oxy-2-azaspiro[3.3]heptane-2-carbonyl]-2,5-diazaspiro[3.4]octan-6-one] | 49 nM |
| O=C1CCC2(CN(C(=O)N3CC4(CC(Oc5ccc(F)cn5)C4)C3)C2)N1 [Example 309, 2-[6-[(5-fluoro-2-pyridyl)oxy]-2-azaspiro[3.3]heptane-2-carbonyl]-2,5-diazaspiro[3.4]octan-6-one] | 94.9 nM |
| Cn1cc(OC2CC3(C2)CN(C(=O)N2CC4(CCC(=O)N4)C2)C3)c(C(F)(F)F)n1 [Example 310, 2-[6-[1-methyl-3-(trifluoromethyl)pyrazol-4-yl]oxy-2-azaspiro[3.3]heptane-2-carbonyl]-2,5-diazaspiro[3.4]octan-6-one] | 76.9 nM |
| O=C1CCC2(CN(C(=O)N3CC4(CC(Cn5cc(C6(C(F)(F)F)CC6)cn5)C4)C3)C2)N1 [Example 311, 2-[6-[[4-[1-(trifluoromethyl)cyclopro-pyl]pyrazol-1-yl]methyl]-2-azaspiro[3.3]heptane-2-carbonyl]-2,5-diazaspiro[3.4]octan-6-one] | 4.08 nM |
| O=C1CCC2(CN(C(=O)N3CC4(CC(Cc5cc(C(F)(F)F)ncn5)C4)C3)C2)N1 [Example 312, 2-[6-[[6-(trifluoromethyl)pyrimi-din-4-yl]methyl]-2-azaspiro[3.3]heptane-2-carbonyl]-2,5-diazaspiro[3.4]octan-6-one] | 54.9 nM |
| O=C1CCC2(CN(C(=O)N3CC4(CC(Oc5ncc(F)cc5Cl)C4)C3)C2)N1 [Example 313, 2-[6-[(3-chloro-5-fluoro-2-pyridyl)oxy]-2-azaspiro[3.3]heptane-2-carbonyl]-2,5-diazaspiro[3.4]octan-6-one] | 27.8 nM |
| O=C1CCC2(CN(C(=O)N3CC4(CC(Cc5ccnc(C(F)(F)F)n5)C4)C3)C2)N1 [Example 314, 2-[6-[[2-(trifluoromethyl)pyrimi-din-4-yl]methyl]-2-azaspiro[3.3]heptane-2-carbonyl]-2,5-diazaspiro[3.4]octan-6-one] | 8.62 nM |
| O=C1CCC2(CN(C(=O)N3CC4(CN(Cc5cnc(C(F)(F)F)s5)C4)C3)C2)N1 [Example 315, 2-[6-[[2-(trifluoromethyl)thiazol-5-yl]methyl]-2,6-diazaspiro[3.3]heptane-2-carbonyl]-2,5-diazaspiro[3.4]octan-6-one] | 206 nM |
| O=C1CCC2(CN(C(=O)N3CC4(CN(Cc5cn[nH]c5C(F)(F)F)C4)C3)C2)N1 [Example 316, 2-[6-[[5-(trifluoromethyl)-1H-pyrazol-4-yl]methyl]-2,6-diazaspiro[3.3]heptane-2-carbonyl]-2,5-diazaspiro[3.4]octan-6-one] | 553 nM |
| O=C1CCC2(CN(C(=O)N3CC4(CCN(Cc5ccc(C(F)(F)F)nn5)C4)C3)C2)N1 [Example 317, 2-[7-[[6-(trifluoromethyl)pyrida-zin-3-yl]methyl]-2,7-diazaspiro[3.4]octane-2-carbonyl]-2,5-diazaspiro[3.4]octan-6-one] | 1040 nM |

The next lines start with the values.

| IC50 | Compound |
| --- | --- |
| 146 nM | O=C1NC2(CO1)CN(C(=O)N1CC3(C1)CN(c1cncc(F)c1)C3)C2 [Example 318, 2-[6-(5-fluoro-3-pyridyl)-2,6-diazaspiro[3.4]heptane-2-carbonyl]-7-oxa-2,5-diazaspiro[3.4]octan-6-one] |
| 12.4 nM | O=C1CCC2(CN(C(=O)N3CC4(CC(Cc5nc(C(F)(F)F)cs5)C4)C3)C2)N1 [Example 319, 2-[6-[[4-(trifluoromethyl)thiazol-2-yl]methyl]-2-azaspiro[3.3]heptane-2-carbonyl]-2,5-diazaspiro[3.4]octan-6-one] |
| 171 nM | O=C1CCC2(CN(C(=O)N3CC4(CC(Cc5ccc6ncnn6c5)C4)C3)C2)N1 [Example 320, 2-[6-([1,2,4]triazolo[1,5-a]pyridin-6-ylmethyl)-2-azaspiro[3.3]heptane-2-carbonyl]-2,5-diazaspiro[3.4]octan-6-one] |
| 88.2 nM | O=C1CCC2(CN(C(=O)N3CC4(CC(Cc5ccc6[nH]ncc6n5)C4)C3)C2)N1 [Example 321, 2-[6-(1H-pyrazolo[4,3-b]pyridin-5-ylmethyl)-2-azaspiro[3.3]heptane-2-carbonyl]-2,5-diazaspiro[3.4]octan-6-one] |
| 4.32 nM | N=S(=O)(c1cc(F)cc(CC2CC3(C2)CN(C(=O)N2CC4(COCC(=O)N4)C2)C3)c1)C(F)(F)F (centres unmarked) [Example 322, 2-[6-[[3-fluoro-5-(trifluoromethylsulfoni-midoyl)phenyl]methyl]-2-azaspiro[3.3]heptane-2-carbonyl]-8-oxa-2,5-diazaspiro[3.5]nonan-6-one] |
| 0.17 nM | O=C1CCC2(CN(C(=O)N3CC4(CCC(Cc5nnc(C(F)(F)F)[nH]5)CC4)C3)C2)N1 [Example 323, 2-[7-[[5-(trifluoromethyl)-4H-1,2,4-triazol-3-yl]methyl]-2-azaspiro[3.5]nonane-2-carbonyl]-2,5-diazaspiro[3.4]octan-6-one] |
| 3.35 nM | O=C1CCC2(CN(C(=O)N3CC4(CC(Cc5cn(C6CC6)nc5C(F)(F)F)C4)C3)C2)N1 [Example 324] |
| 3.88 nM | Cn1ncc(C(F)(F)F)c1CN1CCC2(CC1)CN(C(=O)N1CC3(CCC(=O)N3)C1)C2 [Example 325, 2-[7-[[2-methyl-4-(trifluoromethyl)pyrazol-3-yl]methyl]-2,7-diazaspiro[3.5]nonane-2-carbonyl]-2,5-diazaspiro[3.4]octan-6-one] |
| 6.53 nM | Cc1cc(C(F)(F)F)nn1CC1CC2(C1)CN(C(=O)N1CC3(CCC(=O)N3)C1)C2 [Example 326, 2-[6-[[5-methyl-3-(trifluoromethyl)pyrazol-1-yl]methyl]-2-azaspiro[3.3]heptane-2-carbonyl]-2,5-diazaspiro[3.4]octan-6-one] |
| 7.57 nM | O=C1CCC2(CN(C(=O)N3CC4(CC(Cc5nccc(C(F)(F)F)n5)C4)C3)C2)N1 [Example 327, 2-[6-[[4-(trifluoromethyl)pyrimi-din-2-yl]methyl]-2-azaspiro[3.3]heptane-2-carbonyl]-2,5-diazaspiro[3.4]octan-6-one] |
| 15.9 nM | Cc1cc(C(F)(F)F)n(CC2CC3(C2)CN(C(=O)N2CC4(CCC(=O)N4)C2)C3)n1 [Example 328, 2-[6-[[3-methyl-5-(trifluoromethyl)pyrazol-1-yl]methyl]-2-azaspiro[3.3]heptane-2-carbonyl]-2,5-diazaspiro[3.4]octan-6-one] |
| 16.1 nM | O=C1CCC2(CN(C(=O)N3CC4(CC(Cc5cc(C(F)(F)F)c[nH]c5=O)C4)C3)C2)N1 [Example 329, 2-[6-[[2-keto-5-(trifluoromethyl)-1H-pyridin-3-yl]methyl]-2-azaspiro[3.3]heptane-2-carbonyl]-2,5-diazaspiro[3.4]octan-6-one] |
